The assay has as its target T1, lysophosphatidic acid receptor 1 (LPA1) (Homo sapiens, UniProt Q92633).
T1 construct: gene LPAR1; human LPA1 with N-terminal HA tag (HA-LPA1), in B103 cell membrane nanovesicles
As to the kind of experiment: label-free free-solution assay with compensated interferometric reader (FSA-CIR), receptor nanovesicles, vector-subtracted. It counts as binding. Particulars: read-out: KD ± SEM.
T1 sequence (Q92633 whole entry): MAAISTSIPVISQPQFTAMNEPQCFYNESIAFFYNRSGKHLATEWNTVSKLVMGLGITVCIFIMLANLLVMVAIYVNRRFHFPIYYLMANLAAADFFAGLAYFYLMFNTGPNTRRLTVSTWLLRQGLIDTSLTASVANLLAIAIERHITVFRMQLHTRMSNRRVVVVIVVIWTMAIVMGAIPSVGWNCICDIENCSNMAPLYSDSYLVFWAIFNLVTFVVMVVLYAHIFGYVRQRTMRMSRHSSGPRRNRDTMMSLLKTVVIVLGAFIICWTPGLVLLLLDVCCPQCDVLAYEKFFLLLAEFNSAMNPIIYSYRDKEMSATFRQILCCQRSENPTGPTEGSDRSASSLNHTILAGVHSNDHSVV
A word on the Kd: it is the free concentration of one partner at which half of the binding sites on the other are occupied at equilibrium, for simple one-to-one binding. In the case of `CCCCCCCCCCCCCCCC(=O)OC[C@@H](O)COP(=O)(O)O` [16:0 LPA, 1-palmitoyl-LPA], the Kd was found to be 1.69 nM. As for `CCCCCCCC/C=C\CCCCCCCC(=O)OC[C@@H](O)COP(=O)(O)O` [18:1 LPA, 1-oleoyl-LPA], the Kd was found to be 2.08 nM. In the case of `CCCCC/C=C\C/C=C\C/C=C\C/C=C\CCCC(=O)OC[C@@H](O)COP(=O)(O)O` [20:4 LPA, 1-arachidonoyl-LPA] it was 2.59 nM.

The record behind these values is publication PMC7397748, “Unlabeled lysophosphatidic acid receptor binding in free solution as determined by a compensated interferometric reader” (Journal of Lipid Research, 2020).
